Test results reported in ChEMBL document CHEMBL4007388, “Synthesis and antiproliferative activity of monocationic arylthiophene derivatives” (Eur J Med Chem, 2017).

Experiments:
[1] = Growth inhibition of human NCI60 cells at 10 uM after 48 hrs by SRB assay relative to control; values are per cent of control; settings: NCI60, 48 h
[2] = Antioxidant activity assessed as superoxide dismutase-like activity by measuring inhibition of superoxide radical anion production at 2 uM by NBT reduction assay relative to control; format: functional
CCRF-CEM = experiment: Growth inhibition of human CCRF-CEM cells incubated for 48 hrs by sulforhodamine B assay; format: functional
RPMI-8226 = experiment: Growth inhibition of human RPMI8226 cells incubated for 48 hrs by sulforhodamine B assay; format: functional; settings: RPMI-8226, 48 h
A549 = experiment: Growth inhibition of human A549/ATCC cells incubated for 48 hrs by sulforhodamine B assay; format: functional; settings: A549, 48 h
HOP-92 = experiment: Growth inhibition of human HOP92 cells incubated for 48 hrs by sulforhodamine B assay; format: functional; settings: HOP-92, 48 h
NCI-H226 = experiment: Growth inhibition of human NCI-H226 cells incubated for 48 hrs by sulforhodamine B assay; format: functional; settings: NCI-H226, 48 h
NCI-H23 = experiment: Growth inhibition of human NCI-H23 cells incubated for 48 hrs by sulforhodamine B assay; format: functional; settings: NCI-H23, 48 h
NCI-H322M = experiment: Growth inhibition of human NCI-H322M cells incubated for 48 hrs by sulforhodamine B assay; format: functional
NCI-H460 = experiment: Growth inhibition of human NCI-H460 cells incubated for 48 hrs by sulforhodamine B assay; format: functional; settings: NCI-H460, 48 h
NCI-H522 = experiment: Growth inhibition of human NCI-H522 cells incubated for 48 hrs by sulforhodamine B assay; format: functional; settings: NCI-H522, 48 h
COLO 205 = experiment: Growth inhibition of human COLO205 cells incubated for 48 hrs by sulforhodamine B assay; format: functional; settings: COLO 205, 48 h
HCC 2998 = experiment: Growth inhibition of human HCC2998 cells incubated for 48 hrs by sulforhodamine B assay; format: functional; settings: HCC 2998, 48 h
HCT-116 = experiment: Growth inhibition of human HCT116 cells incubated for 48 hrs by sulforhodamine B assay; format: functional; settings: HCT-116, 48 h
HCT-15 = experiment: Growth inhibition of human HCT15 cells incubated for 48 hrs by sulforhodamine B assay; format: functional; settings: HCT-15, 48 h
HT-29 = experiment: Growth inhibition of human HT-29 cells incubated for 48 hrs by sulforhodamine B assay; format: functional; settings: HT-29, 48 h
KM12 = experiment: Growth inhibition of human KM12 cells incubated for 48 hrs by sulforhodamine B assay; format: functional; settings: KM12, 48 h
SW-620 = experiment: Growth inhibition of human SW620 cells incubated for 48 hrs by sulforhodamine B assay; format: functional; settings: SW-620, 48 h
SF-268 = experiment: Growth inhibition of human SF268 cells incubated for 48 hrs by sulforhodamine B assay; format: functional; settings: SF-268, 48 h
SF-295 = experiment: Growth inhibition of human SF295 cells incubated for 48 hrs by sulforhodamine B assay; format: functional; settings: SF-295, 48 h
SF-539 = experiment: Growth inhibition of human SF539 cells incubated for 48 hrs by sulforhodamine B assay; format: functional; settings: SF-539, 48 h
SNB-19 = experiment: Growth inhibition of human SNB19 cells incubated for 48 hrs by sulforhodamine B assay; format: functional; settings: SNB-19, 48 h
SNB-75 = experiment: Growth inhibition of human SNB75 cells incubated for 48 hrs by sulforhodamine B assay; format: functional; settings: SNB-75, 48 h
U-251 = experiment: Growth inhibition of human U251 cells incubated for 48 hrs by sulforhodamine B assay; format: functional; settings: U-251, 48 h
LOX IMVI = experiment: Growth inhibition of human LOXIMVI cells incubated for 48 hrs by sulforhodamine B assay; format: functional
Malme-3M = experiment: Growth inhibition of human MALME-3M cells incubated for 48 hrs by sulforhodamine B assay; format: functional
M14 = experiment: Growth inhibition of human M14 cells incubated for 48 hrs by sulforhodamine B assay; format: functional; settings: M14, 48 h
MDA-MB-435 = experiment: Growth inhibition of human MDA-MB-435 cells incubated for 48 hrs by sulforhodamine B assay; format: functional; settings: MDA-MB-435, 48 h
SK-MEL-2 = experiment: Growth inhibition of human SK-MEL-2 cells incubated for 48 hrs by sulforhodamine B assay; format: functional; settings: SK-MEL-2, 48 h
SK-MEL-28 = experiment: Growth inhibition of human SK-MEL-28 cells incubated for 48 hrs by sulforhodamine B assay; format: functional; settings: SK-MEL-28, 48 h
SK-MEL-5 = experiment: Growth inhibition of human SK-MEL-5 cells incubated for 48 hrs by sulforhodamine B assay; format: functional; settings: SK-MEL-5, 48 h
UACC-257 = experiment: Growth inhibition of human UACC257 cells incubated for 48 hrs by sulforhodamine B assay; format: functional; settings: UACC-257, 48 h
UACC-62 = experiment: Growth inhibition of human UACC62 cells incubated for 48 hrs by sulforhodamine B assay; format: functional; settings: UACC-62, 48 h
OVCAR-3 = experiment: Growth inhibition of human OVCAR3 cells incubated for 48 hrs by sulforhodamine B assay; format: functional; settings: OVCAR-3, 48 h
OVCAR-4 = experiment: Growth inhibition of human OVCAR4 cells incubated for 48 hrs by sulforhodamine B assay; format: functional; settings: OVCAR-4, 48 h
OVCAR-5 = experiment: Growth inhibition of human OVCAR5 cells incubated for 48 hrs by sulforhodamine B assay; format: functional; settings: OVCAR-5, 48 h
OVCAR-8 = experiment: Growth inhibition of human OVCAR8 cells incubated for 48 hrs by sulforhodamine B assay; format: functional; settings: OVCAR-8, 48 h
NCI/ADR-RES = experiment: Growth inhibition of human NCI/ADR-RES cells incubated for 48 hrs by sulforhodamine B assay; format: functional
SK-OV-3 = experiment: Growth inhibition of human SKOV3 cells incubated for 48 hrs by sulforhodamine B assay; format: functional; settings: SK-OV-3, 48 h
786-0 = experiment: Growth inhibition of human 786-O cells incubated for 48 hrs by sulforhodamine B assay; format: functional; settings: 786-0, 48 h
A498 = experiment: Growth inhibition of human A498 cells incubated for 48 hrs by sulforhodamine B assay; format: functional; settings: A498, 48 h
ACHN = experiment: Growth inhibition of human ACHN cells incubated for 48 hrs by sulforhodamine B assay; format: functional
CAKI-1 = experiment: Growth inhibition of human Caki1 cells incubated for 48 hrs by sulforhodamine B assay; format: functional; settings: CAKI-1, 48 h
RXF 393 = experiment: Growth inhibition of human RXF393 cells incubated for 48 hrs by sulforhodamine B assay; format: functional; settings: RXF 393, 48 h
SN12C = experiment: Growth inhibition of human SN12C cells incubated for 48 hrs by sulforhodamine B assay; format: functional
TK-10 = experiment: Growth inhibition of human TK10 cells incubated for 48 hrs by sulforhodamine B assay; format: functional; settings: TK-10, 48 h
UO-31 = experiment: Growth inhibition of human UO31 cells incubated for 48 hrs by sulforhodamine B assay; format: functional; settings: UO-31, 48 h
PC-3 = experiment: Growth inhibition of human PC3 cells incubated for 48 hrs by sulforhodamine B assay; format: functional; settings: PC-3, 48 h
DU-145 = experiment: Growth inhibition of human DU145 cells incubated for 48 hrs by sulforhodamine B assay; format: functional; settings: DU-145, 48 h
MCF7 = experiment: Growth inhibition of human MCF7 cells incubated for 48 hrs by sulforhodamine B assay; format: functional; settings: MCF7, 48 h
MDA-MB-231 = experiment: Growth inhibition of human MDA-MB-231 cells incubated for 48 hrs by sulforhodamine B assay; format: functional; settings: MDA-MB-231, 48 h
Hs-578T = experiment: Growth inhibition of human Hs 578T cells incubated for 48 hrs by sulforhodamine B assay; format: functional
BT-549 = experiment: Growth inhibition of human BT549 cells incubated for 48 hrs by sulforhodamine B assay; format: functional; settings: BT-549, 48 h
T47D = experiment: Growth inhibition of human T47D cells incubated for 48 hrs by sulforhodamine B assay; format: functional
MDA-MB-468 = experiment: Growth inhibition of human MDA-MB-468 cells incubated for 48 hrs by sulforhodamine B assay; format: functional; settings: MDA-MB-468, 48 h
WI-38 = experiment: Cytotoxicity against human WI38 cells assessed as reduction in cell viability after 24 hrs by MTT assay; format: cell-based; settings: WI-38, 24 h
WISH = experiment: Cytotoxicity against human WISH cells assessed as reduction in cell viability after 24 hrs by MTT assay; format: cell-based
Escherichia coli = experiment: Induction of Escherichia coli genomic DNA cleavage after 1 hr by agarose gel electrophoresis method
Homo sapiens = species on record: Homo sapiens; experiment: Inhibition of PTK in human MCF7 cells at 1 uM preincubated for 2 hrs followed by poly-Glu-Tyr substrate addition by ELISA relative to control; format: cell-based

N=C(N)c1ccc(-c2ccc(-c3cccs3)s2)cc1F
growth percent at 10 µM [1]: -72.5%

N#Cc1ccc(-c2ccc(-c3ccccc3)s2)cc1F
inhibition [2]: 37.9%

COc1ccc(-c2ccc(-c3ccc(C(=N)N)cc3)s2)cc1
GI50 (CCRF-CEM): 231 nM
GI50 (RPMI-8226): 282 nM
GI50 (A549): 226 nM
GI50 (HOP-92): 750 nM
GI50 (NCI-H226): 2140 nM
GI50 (NCI-H23): 665 nM
GI50 (NCI-H322M): 1240 nM
GI50 (NCI-H460): 204 nM
GI50 (NCI-H522): 251 nM
GI50 (COLO 205): 224 nM
GI50 (HCC 2998): 1330 nM
GI50 (HCT-116): 186 nM
GI50 (HCT-15): 183 nM
GI50 (HT-29): 196 nM
GI50 (KM12): 339 nM
GI50 (SW-620): 211 nM
GI50 (SF-268): 1740 nM
GI50 (SF-295): 1270 nM
GI50 (SF-539): 160 nM
GI50 (SNB-19): 811 nM
GI50 (SNB-75): 1710 nM
GI50 (U-251): 232 nM
GI50 (LOX IMVI): 198 nM
GI50 (Malme-3M): 2170 nM
GI50 (M14): 1410 nM
GI50 (MDA-MB-435): 924 nM
GI50 (SK-MEL-2): 2300 nM
GI50 (SK-MEL-28): 1550 nM
GI50 (SK-MEL-5): 1390 nM
GI50 (UACC-257): 2070 nM
GI50 (UACC-62): 1410 nM
GI50 (OVCAR-3): 1730 nM
GI50 (OVCAR-4): 1580 nM
GI50 (OVCAR-5): 180 nM
GI50 (OVCAR-8): 321 nM
GI50 (NCI/ADR-RES): 1490 nM
GI50 (SK-OV-3): 1960 nM
GI50 (786-0): 184 nM
GI50 (A498): 1740 nM
GI50 (ACHN): 359 nM
GI50 (CAKI-1): 1500 nM
GI50 (RXF 393): 1000 nM
GI50 (SN12C): 189 nM
GI50 (TK-10): 1970 nM
GI50 (UO-31): 1670 nM
GI50 (PC-3): 773 nM
GI50 (DU-145): 201 nM
GI50 (MCF7): 175 nM
GI50 (MDA-MB-231): 267 nM
GI50 (Hs-578T): 2140 nM
GI50 (BT-549): 1650 nM
GI50 (T47D): 300 nM
GI50 (MDA-MB-468): 192 nM
IC50 (WI-38): 192000 nM
IC50 (WISH): 180000 nM
inhibition [2]: 59.2%
Activity (Escherichia coli): Dose-dependent effect
inhibition (Homo sapiens): 19 to 36%
growth percent at 10 µM [1]: -70.7%

CN(C)c1ccc(-c2ccc(-c3ccc(C(=N)N)cc3)s2)cc1
inhibition [2]: 58%
Activity (Escherichia coli): Dose-dependent effect

COc1ccc(-c2ccc(-c3ccc(C#N)c(F)c3)s2)cc1
inhibition [2]: 35%
